Data reported in ChEMBL document CHEMBL1201862, “PubChem BioAssay data set” (2004).
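48-hour exposure; five concentrations; linearly interpolated endpoints. GI50 is the concentration that inhibits growth by half.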 Active and inactive are the calls of the source. Rule as the data show it: active = GI50 up to about 1.1 µM and inactive = higher.

What was measured:
Test in all cases: NCI-60 cell line screen, 48 h
A549 = tested on: A549
HCT-15 = tested on: HCT-15
PC-3 = tested on: PC-3
LOX IMVI = tested on: LOX IMVI
SF-295 = tested on: SF-295
NCI-H226 = tested on: NCI-H226
NCI-H23 = tested on: NCI-H23
CCRF-CEM = tested on: CCRF-CEM
SK-MEL-28 = tested on: SK-MEL-28
M14 = tested on: M14
OVCAR-4 = tested on: OVCAR-4
RPMI-8226 = tested on: RPMI-8226
HT-29 = tested on: HT-29
SR = tested on: SR
SW-620 = tested on: SW-620
EKVX = tested on: EKVX
KM12 = tested on: KM12
SNB-19 = tested on: SNB-19
MDA-MB-435 = tested on: MDA-MB-435
TK-10 = tested on: TK-10

Row | SMILES | GI50 (A549) | GI50 (HCT-15) | GI50 (PC-3) | GI50 (LOX IMVI) | GI50 (SF-295) | GI50 (NCI-H226) | GI50 (NCI-H23) | GI50 (CCRF-CEM) | GI50 (SK-MEL-28) | GI50 (M14) | GI50 (OVCAR-4) | GI50 (RPMI-8226) | GI50 (HT-29) | GI50 (SR) | GI50 (SW-620) | GI50 (EKVX) | GI50 (KM12) | GI50 (SNB-19) | GI50 (MDA-MB-435) | GI50 (TK-10)
1 | C=O.NNCCc1n[nH]c(=O)n1N | > 100 µM (inactive) | > 100 µM | > 100 µM (inactive) | > 100 µM (inactive) | > 100 µM (inactive) | > 100 µM (inactive) | > 100 µM (inactive) | > 100 µM (inactive) | > 100 µM (inactive) | > 100 µM (inactive) | > 100 µM (inactive) | > 100 µM (inactive) | > 100 µM (inactive) | > 100 µM (inactive) | > 100 µM (inactive) | > 100 µM (inactive) | > 100 µM (inactive) | > 100 µM (inactive) | > 100 µM (inactive) | –
2 | CC(=O)OC12c3ccccc3-c3ccccc3C1C1C(=O)OC(=O)C12 (centres undefined) | – | > 10 µM | > 10 µM (inactive) | > 10 µM (inactive) | > 10 µM (inactive) | > 10 µM (inactive) | > 10 µM (inactive) | > 10 µM (inactive) | > 10 µM (inactive) | > 10 µM (inactive) | > 10 µM (inactive) | > 10 µM (inactive) | > 10 µM (inactive) | > 10 µM (inactive) | > 10 µM (inactive) | > 10 µM (inactive) | > 10 µM (inactive) | > 10 µM (inactive) | > 10 µM (inactive) | > 10 µM (inactive)
3 | C/C=C/OC1C(C2COC(C)(C)O2)OC2OC(C)(C)OC21 (centres undefined) | > 100 µM (inactive) | > 100 µM | > 100 µM (inactive) | > 100 µM (inactive) | > 100 µM (inactive) | – | > 100 µM (inactive) | > 100 µM (inactive) | > 100 µM (inactive) | > 100 µM (inactive) | > 100 µM (inactive) | > 100 µM (inactive) | > 100 µM (inactive) | > 100 µM (inactive) | > 100 µM (inactive) | > 100 µM (inactive) | – | > 100 µM (inactive) | > 100 µM (inactive) | > 100 µM (inactive)
4 | CC(=O)c1ccc2c(c1)CC1(C2)Cc2cc3c(c(C(=O)O)c2C1)CCC3 (centres undefined) | 37.9 µM (inactive) | > 100 µM | > 100 µM (inactive) | > 100 µM (inactive) | > 100 µM (inactive) | > 100 µM (inactive) | > 100 µM (inactive) | 81.8 µM (inactive) | > 100 µM (inactive) | – | 78.7 µM (inactive) | 63.7 µM (inactive) | > 100 µM (inactive) | 71.6 µM (inactive) | > 100 µM (inactive) | > 100 µM (inactive) | > 100 µM (inactive) | – | > 100 µM (inactive) | > 100 µM (inactive)
5 | CCOC(=O)/C=C(/C(=O)OCC)n1cc(C)c(=O)n(Cc2cn(CCCCOC(C)=O)nn2)c1=O | 27 µM (inactive) | 4.76 µM | 19.7 µM (inactive) | 17.7 µM (inactive) | 33.1 µM (inactive) | 18.4 µM (inactive) | 16.5 µM (inactive) | 0.363 µM (active) | 13.4 µM (inactive) | – | 19.7 µM (inactive) | 5.13 µM (inactive) | 8.05 µM (inactive) | 4.27 µM (inactive) | 3.03 µM (inactive) | 10.7 µM (inactive) | 15.5 µM (inactive) | 18.8 µM (inactive) | 10.7 µM (inactive) | 4.67 µM (inactive)
6 | N=C(N)N/N=C\c1c(-c2ccccc2)nc2sccn12 | 17.5 µM (inactive) | 15.7 µM | 15.1 µM (inactive) | 16.3 µM (inactive) | 14.7 µM (inactive) | 17.6 µM (inactive) | 12.5 µM (inactive) | 21.6 µM (inactive) | 15.7 µM (inactive) | – | 15.8 µM (inactive) | 20 µM (inactive) | 15.3 µM (inactive) | 22.4 µM (inactive) | 12.9 µM (inactive) | 14.5 µM (inactive) | 14.2 µM (inactive) | 14.3 µM (inactive) | 15.6 µM (inactive) | 17.4 µM (inactive)
7 | CCOC(=O)Cn1c(=O)c2nc(SC)sc2n(CC)c1=S | > 100 µM (inactive) | 65.5 µM | > 100 µM (inactive) | > 100 µM (inactive) | > 100 µM (inactive) | > 100 µM (inactive) | > 100 µM (inactive) | > 100 µM (inactive) | > 100 µM (inactive) | 5.78 µM (inactive) | 59.8 µM (inactive) | > 100 µM (inactive) | > 100 µM (inactive) | > 100 µM (inactive) | > 100 µM (inactive) | – | > 100 µM (inactive) | > 100 µM (inactive) | 1.71 µM (inactive) | > 100 µM (inactive)
8 | O=C(c1ccc(Cl)cc1Cl)N(C(=O)N1CCC(c2ccccc2)CC1)c1ccccc1 | > 100 µM (inactive) | > 100 µM | 91.2 µM (inactive) | > 100 µM (inactive) | > 100 µM (inactive) | > 100 µM (inactive) | > 100 µM (inactive) | 13.8 µM (inactive) | > 100 µM (inactive) | > 100 µM (inactive) | – | 47.9 µM (inactive) | > 100 µM (inactive) | 24.3 µM (inactive) | > 100 µM (inactive) | 86.9 µM (inactive) | > 100 µM (inactive) | > 100 µM (inactive) | 55 µM (inactive) | –
9 | N#CSC#Cc1ccc(C#CSC#N)cc1 | 17.8 µM (inactive) | 19.4 µM | 15.6 µM (inactive) | 16.3 µM (inactive) | 20.9 µM (inactive) | 21.6 µM (inactive) | 18.7 µM (inactive) | 10.1 µM (inactive) | 26.2 µM (inactive) | – | 8.81 µM (inactive) | > 100 µM (inactive) | 20.1 µM (inactive) | 51.5 µM (inactive) | 19.2 µM (inactive) | 18.5 µM (inactive) | 19.4 µM (inactive) | 21.3 µM (inactive) | 20.9 µM (inactive) | 16.6 µM (inactive)
10 | CCOP(=O)(OCC)C1(O)CC(n2cc(C)c(=O)[nH]c2=O)OC1CO (centres undefined) | > 100 µM (inactive) | > 100 µM | > 100 µM (inactive) | > 100 µM (inactive) | > 100 µM (inactive) | > 100 µM (inactive) | > 100 µM (inactive) | – | > 100 µM (inactive) | > 100 µM (inactive) | > 100 µM (inactive) | > 100 µM (inactive) | > 100 µM (inactive) | > 100 µM (inactive) | > 100 µM (inactive) | > 100 µM (inactive) | > 100 µM (inactive) | > 100 µM (inactive) | > 100 µM (inactive) | > 100 µM (inactive)
11 | O=C(CN(C(=O)OC12CC3CC(CC(C3)C1)C2)C(=O)OC12CC3CC(CC(C3)C1)C2)Oc1ccc([N+](=O)[O-])cc1 | > 100 µM (inactive) | > 100 µM | 16.1 µM (inactive) | > 100 µM (inactive) | > 100 µM (inactive) | > 100 µM (inactive) | 93.8 µM (inactive) | 30.5 µM (inactive) | > 100 µM (inactive) | > 100 µM (inactive) | > 100 µM (inactive) | – | > 100 µM (inactive) | > 100 µM (inactive) | 56.6 µM (inactive) | > 100 µM (inactive) | > 100 µM (inactive) | > 100 µM (inactive) | 45.3 µM (inactive) | 52.4 µM (inactive)
12 | O=C1CCc2ccccc2O1 [DIHYDROCOUMARIN] | – | > 100 µM | > 100 µM (inactive) | > 100 µM (inactive) | > 100 µM (inactive) | > 100 µM (inactive) | > 100 µM (inactive) | > 100 µM (inactive) | > 100 µM (inactive) | – | > 100 µM (inactive) | > 100 µM (inactive) | > 100 µM (inactive) | > 100 µM (inactive) | > 100 µM (inactive) | > 100 µM (inactive) | > 100 µM (inactive) | > 100 µM (inactive) | > 100 µM (inactive) | > 100 µM (inactive)
13 | C#CCOC(=O)[C@@H](C)c1ccc2cc(OC)ccc2c1 | – | 28.4 µM | 82.6 µM (inactive) | 70.1 µM (inactive) | > 100 µM (inactive) | > 100 µM (inactive) | 63.5 µM (inactive) | 31.1 µM (inactive) | – | > 100 µM (inactive) | 96.8 µM (inactive) | 29.5 µM (inactive) | – | 17.3 µM (inactive) | > 100 µM (inactive) | 66.2 µM (inactive) | > 100 µM (inactive) | > 100 µM (inactive) | 66.4 µM (inactive) | > 100 µM (inactive)
14 | O=C(O)CNC(=O)c1ccc2cc(C(=O)N3CC(CCl)c4ccc([N+](=O)[O-])cc43)[nH]c2c1 (centres undefined) | > 100 µM (inactive) | > 100 µM | > 100 µM (inactive) | > 100 µM (inactive) | > 100 µM (inactive) | > 100 µM (inactive) | > 100 µM (inactive) | > 100 µM (inactive) | – | > 100 µM (inactive) | > 100 µM (inactive) | > 100 µM (inactive) | > 100 µM (inactive) | > 100 µM (inactive) | > 100 µM (inactive) | > 100 µM (inactive) | > 100 µM (inactive) | > 100 µM (inactive) | > 100 µM (inactive) | > 100 µM (inactive)
15 | CC(C)(C)OC(=O)N1CCC23CCCC2C(=O)CC=C13 (centres undefined) | > 100 µM (inactive) | > 100 µM | > 100 µM (inactive) | > 100 µM (inactive) | > 100 µM (inactive) | > 100 µM (inactive) | > 100 µM (inactive) | 37.9 µM (inactive) | > 100 µM (inactive) | > 100 µM (inactive) | > 100 µM (inactive) | – | > 100 µM (inactive) | > 100 µM (inactive) | > 100 µM (inactive) | > 100 µM (inactive) | > 100 µM (inactive) | > 100 µM (inactive) | > 100 µM (inactive) | > 100 µM (inactive)
